Reference: patent US20250100977A1, “MERCAPTOPYRIMIDINE COMPOUNDS THAT INHIBIT NONHOMOLOGOUS END JOINING AND METHODS THEREOF” (INDIAN INSTITUTE OF SCIENCE, priority 2021, published 2025)

Legend:
[1] = system: Nalm6; test: Cytotoxicity (viable cells) in Nalm6; type: cell-based; conditions: Homo sapiens, NALM-6; Table 1; 48 h; read-out: IC50 in cancer cell lines, Nalm6
Experimental: (§1) The compounds of the present invention were screened initially in leukemic and cervical cancer cell lines (Table 1). […] In cervical cancer cell line HeLa, IC50 was 5 and 2 μM, respectively for SCR116 and SCR132 (FIG. 5A-B).
(§2) Ligase IV specificity of the compounds of the present invention inside the cells were also determined using Ligase IV knock out (KO) cell line N114 compared to the wild type Nalm6 (Table 2, FIGS. 5C, D, E and F). […] Table 1 showing IC50 of SCR7 derivatives in cancer cell lines Nalm6 and HeLa. IC50 was calculated using GraphPad Prism software from the percentage of viable cells following treatment with the compounds at 48 h. Table 2 showing IC50 of SCR116 and SCR132 in a panel of 16 cancer cell lines.

[2] = system: rat testicular extracts; test: Inhibition of end joining of rat testicular extracts (NHEJ); type: biochemical; conditions: 500 μM; rat testicular extract
Experimental: The compounds of the present invention were tested for their effects on inhibition of DNA end joining reactions using rat tissue extracts and purified DNA Ligase IV/XRCC4. Rat testicular extracts were prepared from testes of 4-6 week old male Wistar rats, Rattus norvegicus using ammonium sulphate precipitation method. To determine end joining of cell-free extracts, radiolabeled double-stranded (ds) oligomeric DNA substrate was incubated with rat testicular extract at 25° C. in suitable NHEJ buffer. Extracts were incubated for 30 min with the compounds of Formula I (01-41, 500 μM) as prepared in Example 1, and then radioactive DNA substrate was added to the reaction mixture and incubated for 1 h at 25° C. Reactions were stopped using EDTA, and products were purified using phenol: chloroform extraction and loaded on denaturing polyacrylamide gel. […] Joining efficiency was calculated using the intensity of product bands (150 bp or higher) in individual lanes in Multi Gauge software as compared to control (lanes 2,3). Lane 1 denotes radioactive substrate in absence of protein or inhibitor, while M denotes radiolabeled 50 bp DNA ladder.
(§3) Effects of these compounds on NHEJ and Ligase IV mediated joining were evaluated (FIG. 4A-K). The reactions were terminated by EDTA (10 mM), products were purified using phenol/chloroform, precipitated with chilled ethanol and glycogen, and resolved on 8% denaturing PAGE. The gel was dried, exposed, and signal was detected using phosphor Imager FLA9000 (Fuji, Japan), and quantified in MultiGauge software expressed as Photo Stimulated Luminescence Units (PSLU). Inhibition of end joining was reported at 200 μM and 100 μM, respectively for SCR116 and SCR132 (FIGS. 4A, B, C and D), with >50% inhibition at 200 and 100 μM concentrations, respectively. […] FIG. 4K depict the purification profile of Ligase IV and XRCC4. Further FIGS. 4L-M represent inhibition of end joining catalysed by (FIG. 4L) purified Ligase III/XRCCI in presence of SCR116 and SCR132 (50, 100, 200, 500, 1000 μM) and (FIG. 4M) by purified Ligase I in presence of increasing concentrations of SCR116 and SCR132 (10, 50, 100, 200, 500, 1000 μM).

[3] = system: HeLa; test: Cytotoxicity (viable cells) in HeLa; type: cell-based; conditions: Homo sapiens, HeLa, 48 h, Table 1; 48 h; read-out: IC50 in cancer cell lines, HeLa
Experimental: as §1, §2

[4] = target: T1, DNA Ligase IV/XRCC4 (Homo sapiens, UniProt P49917); test: Inhibition of end joining by purified DNA Ligase IV/XRCC4; type: biochemical; conditions: 200 μM; purified Ligase IV/XRCC4
T1 construct: made in house; host or cells: bacteria
T1 sequence (P49917 whole entry): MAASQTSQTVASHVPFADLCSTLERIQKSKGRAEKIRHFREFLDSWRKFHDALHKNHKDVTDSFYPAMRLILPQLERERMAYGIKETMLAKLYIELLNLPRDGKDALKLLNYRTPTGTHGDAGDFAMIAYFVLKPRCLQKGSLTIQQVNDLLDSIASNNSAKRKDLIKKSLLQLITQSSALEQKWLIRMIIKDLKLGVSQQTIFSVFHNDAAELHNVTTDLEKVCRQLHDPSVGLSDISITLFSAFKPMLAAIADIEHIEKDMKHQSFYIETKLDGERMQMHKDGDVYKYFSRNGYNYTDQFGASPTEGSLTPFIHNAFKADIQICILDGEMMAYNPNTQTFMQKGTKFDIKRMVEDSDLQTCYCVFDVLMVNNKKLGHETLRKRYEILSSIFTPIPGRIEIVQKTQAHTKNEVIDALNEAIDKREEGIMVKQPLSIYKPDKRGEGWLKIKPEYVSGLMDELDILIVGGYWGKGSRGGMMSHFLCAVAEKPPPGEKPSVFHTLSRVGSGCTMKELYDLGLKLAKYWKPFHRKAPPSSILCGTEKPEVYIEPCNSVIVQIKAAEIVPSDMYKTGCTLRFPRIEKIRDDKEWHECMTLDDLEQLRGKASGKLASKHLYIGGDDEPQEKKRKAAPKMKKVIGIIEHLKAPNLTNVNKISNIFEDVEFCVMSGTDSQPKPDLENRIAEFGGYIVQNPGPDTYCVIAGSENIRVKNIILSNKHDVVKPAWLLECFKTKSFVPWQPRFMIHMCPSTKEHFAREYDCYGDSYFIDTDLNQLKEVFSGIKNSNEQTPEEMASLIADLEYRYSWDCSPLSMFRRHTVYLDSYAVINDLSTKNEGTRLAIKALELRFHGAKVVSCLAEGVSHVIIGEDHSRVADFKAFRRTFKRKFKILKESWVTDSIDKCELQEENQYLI
T1 sequence (Q13426 whole entry partner): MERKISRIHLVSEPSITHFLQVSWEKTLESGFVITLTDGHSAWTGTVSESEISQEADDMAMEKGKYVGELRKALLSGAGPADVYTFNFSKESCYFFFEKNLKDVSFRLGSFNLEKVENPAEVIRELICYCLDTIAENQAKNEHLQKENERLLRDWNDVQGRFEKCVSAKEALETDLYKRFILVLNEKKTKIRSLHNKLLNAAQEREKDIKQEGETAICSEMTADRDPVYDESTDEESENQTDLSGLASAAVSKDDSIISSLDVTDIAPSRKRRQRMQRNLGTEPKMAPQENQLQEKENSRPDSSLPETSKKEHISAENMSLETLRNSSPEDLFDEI
Experimental: The compounds of Formula I were evaluated for their specific inhibition activity towards enzyme DNA Ligase IV. DNA Ligase IV/XRCC4 was purified from bacteria using Ni-NTA column (FIG. 2A), and used for evaluation of inhibition of end joining of the compounds (01-41) at 200 μM (FIGS. 2B, C and D). The compounds were incubated with purified Ligase IV/XRCC4 in suitable NHEJ buffer at 25° C. for 30 min, followed by addition of radiolabeled DNA, and further incubation for 1 h at 25° C. Products were purified using phenol: chloroform and run on denaturing PAGE.
as §3

[5] = system: Ligase IV knock out (KO) cell line N114; conditions: Vartak et al. 2018; cited from earlier work

Inhibition of end joining compared with control [4]	SMILES	IC50 [1]	Inhibition of end joining (no joined product observed) [2]	IC50 [3]	Effect in KO in absence of Ligase IV [5]
	Nc1nc(S)nc(O)c1/N=C/c1ccccc1O [Compound 06, (E)-6-amino-5-((2-hydroxybenzylidene)amino)-2-mercaptopyrimidin-4-ol]	19.4 µM	showed inhibition of end joining	17.5 µM	
	Nc1nc(S)nc(O)c1/N=C/c1cc(Br)ccc1O [Compound 40, (E)-6-amino-5-((5-bromo-2-hydroxybenzylidene)amino)-2-mercaptopyrimidin-4-ol]	12.6 µM	showed inhibition of end joining	18.3 µM	
significant inhibition of end joining	Nc1nc(S)nc(O)c1/N=C/c1ccc[nH]1 [Compound 12, (E)-5-(((1H-pyrrol-2-yl)methylene)amino)-6-amino-2-mercaptopyrimidin-4-ol]	29.5 µM	showed inhibition of end joining	48.5 µM	
	N#Cc1ccc(/C=N/c2c(N)nc(S)nc2O)s1 [Compound 34, (E)-5-(((4-amino-6-hydroxy-2-mercaptopyrimidin-5-yl)imino)methyl)thiophene-2-carbonitrile]	0.95 µM		41.4 µM	
	Nc1nc(S)nc(O)c1/N=C/c1ccncc1F [Compound 33, (E)-6-amino-5-(((3-fluoropyridin-4-yl)methylene)amino)-2-mercaptopyrimidin-4-ol]	2.24 µM		20.8 µM	
	Nc1nc(S)nc(O)c1/N=C/c1nccs1 [Compound 13, (E)-6-amino-2-mercapto-5-((thiazol-2-ylmethylene)amino)pyrimidin-4-ol]	25.6 µM		133 µM	
	Nc1nc(S)nc(O)c1/N=C/c1ccc(Br)s1 [Compound 35, (E)-6-amino-5-(((5-bromothiophen-2-yl)methylene)amino)-2-mercaptopyrimidin-4-ol]	6.87 µM		18.4 µM	
	N#Cc1ccc(/C=N/c2c(N)nc(S)nc2O)cc1 [Compound 36, (E)-4-(((4-amino-6-hydroxy-2-mercaptopyrimidin-5yl)imino)methyl)benzonitrile]	2.88 µM		27.2 µM	
	O=c1[nH]c(=S)[nH]c2nc(-c3ccccc3)c(-c3ccccc3)nc12 [SCR7-pyrazine]				nonspecific effects
	Nc1nc(S)nc(O)c1/N=C/c1cccc2ccccc12 [Compound 17, (E)-6-amino-2-mercapto-5-((naphthalen-1-ylmethylene)amino)pyrimidin-4-ol]	29.7 µM		29.5 µM	
	Nc1nc(S)nc(O)c1/N=C/c1ccc2ccccc2n1 [Compound 38, (E)-6-amino-2-mercapto-5-((quinolin-2-ylmethylene)amino)pyrimidin-4-ol]	25.5 µM		45.8 µM	
	Nc1nc(S)nc(O)c1/N=C/c1cccs1 [Compound 01, (E)-6-amino-2-mercapto-5-((thiophen-2-ylmethylene)amino)pyrimidin-4-ol]	23.3 µM		17.7 µM	
	CN(C)c1ccc(/C=N/c2c(N)nc(S)nc2O)cc1 [Compound 37, (E)-6-amino-5-((4-(dimethylamino)benzylidene)amino)-2-mercaptopyrimidin-4-ol]	15.2 µM		47.8 µM	
	Nc1nc(S)nc(O)c1/N=C/c1cccnc1 [Compound 07, (E)-6-amino-2-mercapto-5-((pyridin-3-ylmethylene)amino)pyrimidin-4-ol]	26.6 µM		28.2 µM	
	Nc1nc(S)nc(O)c1/N=C/c1cc(F)c(O)c(F)c1 [Compound 41, (E)-6-amino-5-((3,5-difluoro-4-hydroxybenzylidene)amino)-2-mercaptopyrimidin-4-ol]	28.8 µM		29.2 µM	
	COc1cc(/C=N/c2c(N)nc(S)nc2O)ccc1O [Compound 39, (E)-6-amino-5-((4-hydroxy-3-methoxybenzylidene)amino)-2-mercaptopyrimidin-4-ol]	33.6 µM		43.2 µM	
	Nc1nc(S)nc(O)c1/N=C/c1ncc[nH]1 [Compound 04, (E)-5-(((1H-imidazol-2-yl)methylene)amino)-6-amino-2-mercaptopyrimidin-4-ol]	29.7 µM		95 µM	
significant inhibition of end joining	CC(=O)OCc1ccc(/C=N/c2c(N)nc(S)nc2O)o1 [Compound 15, (E)-(5-(((4-amino-6-hydroxy-2-mercaptopyrimidin-5-yl)imino)methyl)furan-2-yl)methylacetate]	29.8 µM	showed inhibition of end joining	79.8 µM	
	Nc1nc(S)nc(O)c1/N=C/c1cncc2ccccc12 [Compound 05, 6-amino-5-{[(E)-isoquinolin-4-ylmethylidene]amino}-2-mercaptopyrimidin-4-ol]	18.2 µM		11.9 µM	
	Nc1nc(S)nc(O)c1/N=C/c1ccnc(Cl)c1 [Compound 31, (E)-6-amino-5-(((2-chloropyridin-4-yl)methylene)amino)-2-mercaptopyrimidin-4-ol]	4.04 µM	showed inhibition of end joining	6.95 µM	
